The results in this text go back to patent US20250051338A1, “TYK2 DEGRADERS AND USES THEREOF” (Kymera Therapeutics, Inc., priority 2021, published 2025).

Holding throughout (format): cell-based
In assay [1] the target is T1, TYK2 (Homo sapiens, UniProt P29597). The experiment in a line: TYK2 degradation MSD assay in human PBMC cells. Set-up: endogenous in cells; host or cells: human PBMC. The note with it: 4 to 24 hours incubation, read-out: TYK2 MSD DC50 rating in human PBMC. The gist of the method: (§1)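 0.4 million cells/well; cpd 9-dose 1:3 titration, top 1–10 μM; 4–24 h, 37° C, 5% CO2; RIPA lysis; TYK2 capture/detection sandwich on MSD, SULFO-TAG anti-rabbit secondary; DC50 via 4-parameter fit.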
T1 sequence (P29597 whole entry): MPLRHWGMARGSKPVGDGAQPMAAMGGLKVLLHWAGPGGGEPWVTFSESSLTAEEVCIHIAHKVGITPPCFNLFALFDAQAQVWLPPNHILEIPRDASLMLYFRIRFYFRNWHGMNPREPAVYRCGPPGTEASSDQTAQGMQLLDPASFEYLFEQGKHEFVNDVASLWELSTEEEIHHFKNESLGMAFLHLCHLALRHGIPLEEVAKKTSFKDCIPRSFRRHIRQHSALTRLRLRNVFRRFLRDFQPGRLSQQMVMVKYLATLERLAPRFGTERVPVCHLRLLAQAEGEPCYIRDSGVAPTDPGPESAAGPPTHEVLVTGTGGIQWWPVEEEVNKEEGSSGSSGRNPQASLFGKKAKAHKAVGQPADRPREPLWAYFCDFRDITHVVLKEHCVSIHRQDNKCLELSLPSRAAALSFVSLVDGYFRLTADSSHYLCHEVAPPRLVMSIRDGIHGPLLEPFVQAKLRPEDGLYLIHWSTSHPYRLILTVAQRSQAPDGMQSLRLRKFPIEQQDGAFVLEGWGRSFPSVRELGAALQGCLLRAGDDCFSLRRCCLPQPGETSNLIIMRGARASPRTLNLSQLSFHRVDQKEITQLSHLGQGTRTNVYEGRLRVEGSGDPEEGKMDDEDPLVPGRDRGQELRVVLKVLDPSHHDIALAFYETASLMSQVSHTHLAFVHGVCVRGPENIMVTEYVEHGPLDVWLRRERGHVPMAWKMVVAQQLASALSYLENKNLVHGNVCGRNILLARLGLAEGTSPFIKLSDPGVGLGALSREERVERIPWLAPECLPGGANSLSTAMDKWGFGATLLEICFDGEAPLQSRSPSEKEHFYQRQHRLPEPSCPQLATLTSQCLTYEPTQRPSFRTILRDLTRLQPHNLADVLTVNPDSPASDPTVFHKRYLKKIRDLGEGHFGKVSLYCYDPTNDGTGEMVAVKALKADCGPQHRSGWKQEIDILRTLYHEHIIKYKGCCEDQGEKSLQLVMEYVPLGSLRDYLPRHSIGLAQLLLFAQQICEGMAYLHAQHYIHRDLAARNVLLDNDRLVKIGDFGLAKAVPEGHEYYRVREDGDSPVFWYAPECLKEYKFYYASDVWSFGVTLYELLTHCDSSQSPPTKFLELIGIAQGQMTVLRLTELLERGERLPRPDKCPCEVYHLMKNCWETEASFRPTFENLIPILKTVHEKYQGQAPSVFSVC

Assay [2] concerns the target T1, TYK2. The assay can be described thus: TYK2 degradation MSD assay in EBV-B cells. Set-up: endogenous in cells; host or cells: EBV-B cells. Particulars: 4 to 24 hours incubation, read-out: TYK2 MSD DC50 rating in EBV-B. The gist of the method: as §1
For assay [3], the target named is T1, TYK2. The experiment in a line: TYK2 degradation MSD assay in OCI-LY10 cells. Details: endogenous in cells; host or cells: EBV-B cells. Particulars: 4 to 24 hours incubation, read-out: TYK2 MSD DC50 rating in OCI-LY10. An outline of the steps: as §1

Consider `CNc1cc(Nc2cccn(-c3ccc(C(=O)C4CCC([C@H]5CCN(c6ccc7c(c6)n(C)c(=O)n7C6CCC(=O)NC6=O)C5)CN4)cn3)c2=O)nn2c(C(=O)N[C@@H]3C[C@@H]3F)cnc12` (stereo partly drawn) [Example K425], for which the DC50 on TYK2 [1], on TYK2 [2] and on TYK2 [3] was over 100 nM in each case.
`CNc1cc(Nc2cccn(-c3ccc(C(=O)N4CCC5(CCCN(CCc6ccc7c(c6)n(C)c(=O)n7C6CCC(=O)NC6=O)C5)C4)cn3)c2=O)nn2c(C(=O)N[C@@H]3C[C@@H]3F)cnc12` (stereo partly drawn) [Example K426]: the DC50 at TYK2 [1], at TYK2 [2] and on TYK2 [3] was over 100 nM each time.
`CNc1cc(Nc2cccn(-c3ccc(C(=O)N(C)C4CCC(N5CCN(c6ccc7c(c6)n(C)c(=O)n7C6CCC(=O)NC6=O)CC5)CC4)cn3)c2=O)nn2c(C(=O)N[C@@H]3C[C@@H]3F)cnc12` (stereo partly drawn) [Example K427]: the DC50 was over 100 nM on TYK2 [1], over 100 nM at TYK2 [2] and under 1 nM on TYK2 [3].
`CNc1cc(Nc2cccn(-c3ccc(C(=O)NC4CCC(CN(C)C5CCN(Cc6ccc7c(c6)n(C)c(=O)n7C6CCC(=O)NC6=O)CC5)CC4)cn3)c2=O)nn2c(C(=O)N[C@@H]3C[C@@H]3F)cnc12` (stereo partly drawn) [Example K428]: the half-maximal degradation concentration (DC50) at TYK2 [1] was over 100 nM; on TYK2 [2], over 100 nM; on TYK2 [3], under 1 nM.
With `CNc1cc(Nc2cccn(-c3ccc(C(=O)N4CC(N5CCN(CCc6ccc7c(c6)n(C)c(=O)n7C6CCC(=O)NC6=O)CC5)C4)cn3)c2=O)nn2c(C(=O)N[C@@H]3C[C@@H]3F)cnc12` (stereo partly drawn) [Example K429], the 50% degradation concentration (DC50) at TYK2 [1] was over 100 nM; on TYK2 [2] it was 1 to 10 nM; at TYK2 [3] it was under 1 nM.
`CNc1cc(Nc2cccn(-c3ccc(C(=O)N[C@H]4CC[C@H](CN5CCC6(CC5)CN(Cc5cccc7c5n(C)c(=O)n7C5CCC(=O)NC5=O)C6)CC4)cn3)c2=O)nn2c(C(=O)N[C@@H]3C[C@@H]3F)cnc12` (stereo partly drawn) [Example K430]: the DC50 was over 100 nM on TYK2 [1], 1 to 10 nM on TYK2 [2] and under 1 nM at TYK2 [3].
On the same counts, the results for `CNc1cc(Nc2cccc(-c3ccc(CN4CCC(C#Cc5cccc6c5n(C)c(=O)n6C5CCC(=O)NC5=O)CC4)cn3)c2)nn2c(C(=O)N[C@@H]3C[C@@H]3F)cnc12` (stereo partly drawn) [Example K431] are over 100 nM, over 100 nM and 1 to 10 nM.
Turning to `CNc1cc(Nc2cccc(-c3ccc(CN4CCN(CC#Cc5cccc6c5n(C)c(=O)n6C5CCC(=O)NC5=O)CC4)cn3)c2)nn2c(C(=O)N[C@@H]3C[C@@H]3F)cnc12` (stereo partly drawn) [Example K432], the DC50 on TYK2 [1] was over 100 nM; on TYK2 [2] it was over 100 nM; at TYK2 [3] it was under 1 nM.
Turning to `Cn1c(=O)n(C2CCC(=O)NC2=O)c2cccc(C#CCN3CCN(Cc4ccc(-c5cccc(Nc6ccc7ncc(C(=O)NC8CC8)n7n6)c5)nc4)CC3)c21` (stereo not drawn) [Example K433], the DC50 at TYK2 [1], at TYK2 [2] and on TYK2 [3] was over 100 nM each time.
As to `CNc1cc(Nc2cccc(-c3ccc(CN4CCN(C5CCN(c6ccc7c(c6)n(C)c(=O)n7C6CCC(=O)NC6=O)CC5)CC4)cn3)c2)nn2c(C(=O)N[C@@H]3C[C@@H]3F)cnc12` (stereo partly drawn) [Example K435], the DC50 at TYK2 [1] is over 100 nM; at TYK2 [2] it was over 100 nM; on TYK2 [3], under 1 nM.
As for `CNc1cc(Nc2cccc(-c3ccc(CN4CCC(C#Cc5ccc6c(c5)n(C)c(=O)n6C5CCC(=O)NC5=O)CC4)cn3)c2)nn2c(C(=O)N[C@@H]3C[C@@H]3F)cnc12` (stereo partly drawn) [Example K436], the results for the DC50 on TYK2 [1], on TYK2 [2] and at TYK2 [3] were over 100 nM, over 100 nM and under 1 nM, respectively.
For `CNc1cc(Nc2cccn(-c3ccc(CNCc4ccc(N5CCC(N6CCC(c7ccc8c(c7)n(C)c(=O)n8C7CCC(=O)NC7=O)C6)CC5)cc4)cn3)c2=O)nn2c(C(=O)N[C@@H]3C[C@@H]3F)cnc12` (stereo partly drawn) [Example K437], the figures for the DC50 at TYK2 [1], on TYK2 [2] and on TYK2 [3] were over 100 nM, over 100 nM and under 1 nM, respectively.
`CNc1cc(Nc2cccn(-c3ccc(C(=O)N(C)CCCOC4CCN(c5ccc6c(c5)n(C)c(=O)n6C5CCC(=O)NC5=O)CC4)cn3)c2=O)nn2c(C(=O)N[C@@H]3C[C@@H]3F)cnc12` (stereo partly drawn) [Example K438]: the DC50 on TYK2 [1] was over 100 nM; on TYK2 [2], over 100 nM; on TYK2 [3] it was 1 to 10 nM.
As for `CNc1cc(Nc2cccn(-c3ccc(C(=O)N(C)C4CCN(c5ccc(-c6ccc7c(c6)n(C)c(=O)n7C6CCC(=O)NC6=O)cc5)C4)cn3)c2=O)nn2c(C(=O)N[C@@H]3C[C@@H]3F)cnc12` (stereo partly drawn) [Example K439], the 50% degradation concentration (DC50) at TYK2 [1] is over 100 nM; on TYK2 [2], over 100 nM; at TYK2 [3], under 1 nM.
In the case of `CNc1cc(Nc2cccn(-c3ccc(C(=O)N4CCN(CCOc5cccc(-c6ccc7c(c6)n(C)c(=O)n7C6CCC(=O)NC6=O)c5)CC4)cn3)c2=O)nn2c(C(=O)N[C@@H]3C[C@@H]3F)cnc12` (stereo partly drawn) [Example K440], the DC50 at TYK2 [1] was over 100 nM; at TYK2 [2] it was over 100 nM; on TYK2 [3] it was under 1 nM.
Turning to `CNc1cc(Nc2cccn(-c3ccc(C(=O)N4CCC5(CCN(c6ncc(C#Cc7ccc8c(c7)n(C)c(=O)n8C7CCC(=O)NC7=O)cn6)C5=O)C4)cn3)c2=O)nn2c(C(=O)N[C@@H]3C[C@@H]3F)cnc12` (stereo partly drawn) [Example K441], the DC50 was over 100 nM at TYK2 [1], over 100 nM on TYK2 [2] and under 1 nM on TYK2 [3].
Turning to `CNc1cc(Nc2cccn(-c3ccc(C(=O)N4CCC(OC5CC(c6cccc7c6n(C)c(=O)n7C6CCC(=O)NC6=O)C5)CC4)cn3)c2=O)nn2c(C(=O)N[C@@H]3C[C@@H]3F)cnc12` (stereo partly drawn) [Example K442], the DC50 on TYK2 [1] is over 100 nM; on TYK2 [2], over 100 nM; on TYK2 [3] it was under 1 nM.
Regarding `CNc1cc(Nc2cccn(-c3ccc(C(=O)NC4CCC(C(=O)N5CCC6(CN(CC#Cc7ccc8c(c7)n(C)c(=O)n8C7CCC(=O)NC7=O)C6)C5)CC4)cn3)c2=O)nn2c(C(=O)N[C@@H]3C[C@@H]3F)cnc12` (stereo partly drawn) [Example K444], the DC50 at TYK2 [1], on TYK2 [2] and on TYK2 [3] was 1 to 10 nM each time.
For the molecule `CNc1cc(Nc2cccn(-c3ccc(C(=O)N4CCC(CN(C)C5CCN(c6ccc7c(c6)n(C)c(=O)n7C6CCC(=O)NC6=O)CC5)C4)cn3)c2=O)nn2c(C(=O)N[C@@H]3C[C@@H]3F)cnc12` (stereo partly drawn) [Example K445], the 50% degradation concentration (DC50) was over 100 nM at TYK2 [1], over 100 nM at TYK2 [2] and under 1 nM on TYK2 [3].
`CNc1cc(Nc2cccn(-c3ccc(C(=O)N4CCC(N(C)CC5CCN(c6ccc(-c7ccc8c(c7)n(C)c(=O)n8C7CCC(=O)NC7=O)cc6)C5)CC4)cn3)c2=O)nn2c(C(=O)N[C@@H]3C[C@@H]3F)cnc12` (stereo partly drawn) [Example K446]: the DC50 on TYK2 [1] is over 100 nM; at TYK2 [2] it was over 100 nM; at TYK2 [3], under 1 nM.
In the case of `CNc1cc(Nc2cccn(-c3ccc(C(=O)NC4CCC(CN(C)CC5CCN(Cc6ccc7c(c6)n(C)c(=O)n7C6CCC(=O)NC6=O)CC5)CC4)cn3)c2=O)nn2c(C(=O)N[C@@H]3C[C@@H]3F)cnc12` (stereo partly drawn) [Example K447], the half-maximal degradation concentration (DC50) at TYK2 [1] was over 100 nM; on TYK2 [2] it was over 100 nM; on TYK2 [3], under 1 nM.
In the case of `CNc1cc(Nc2cccn(-c3ccc(C(=O)N[C@H]4CC[C@H](CN(C)C5CCN(Cc6cccc7c6n(C)c(=O)n7C6CCC(=O)NC6=O)CC5)CC4)cn3)c2=O)nn2c(C(=O)N[C@@H]3C[C@@H]3F)cnc12` (stereo partly drawn) [Example K449], the figures for the DC50 at TYK2 [1], on TYK2 [2] and on TYK2 [3] were over 100 nM, over 100 nM and under 1 nM, respectively.
Consider `CNc1cc(Nc2cccn(-c3ccc(C(=O)N4CC(CN5CCC(c6cccc7c6n(C)c(=O)n7C6CCC(=O)NC6=O)CC5)C4)cn3)c2=O)nn2c(C(=O)N[C@@H]3C[C@@H]3F)cnc12` (stereo partly drawn) [Example K450], for which the values for the DC50 at TYK2 [1], at TYK2 [2] and on TYK2 [3] were over 100 nM, over 100 nM and under 1 nM, respectively.
Consider `CNc1cc(Nc2cccn(-c3ccc(C(=O)N4CCC(CN5CCCC(c6cccc7c6n(C)c(=O)n7C6CCC(=O)NC6=O)C5)CC4)cn3)c2=O)nn2c(C(=O)N[C@@H]3C[C@@H]3F)cnc12` (stereo partly drawn) [Example K451], for which the DC50 at TYK2 [1] is over 100 nM; at TYK2 [2] it was over 100 nM; at TYK2 [3], under 1 nM.
Take `Cn1c(=O)n(C2CCC(=O)NC2=O)c2cccc(N3CCC4(CC3)CN(Cc3ccc(-c5cccc(Nc6ccc7ncc(C(=O)NC8CC8)n7n6)c5)nc3)C4)c21` (stereo not drawn) [Example K452]: the DC50 on TYK2 [1], at TYK2 [2] and on TYK2 [3] was over 100 nM throughout.
With `CNc1cc(Nc2cccn(-c3ccc(C(=O)N4CCC(N5CCC(N6CCN(c7ccc8c(c7)n(C)c(=O)n8C7CCC(=O)NC7=O)CC6)CC5)CC4)cn3)c2=O)nn2c(C(=O)N[C@@H]3C[C@@H]3F)cnc12` (stereo partly drawn) [Example K453], the results for the half-maximal degradation concentration (DC50) at TYK2 [1], on TYK2 [2] and on TYK2 [3] were over 100 nM, under 1 nM and under 1 nM, respectively.
As for `CNc1cc(Nc2cccn(-c3ccc(CN4CCN([C@H]5CC[C@H](c6ccc(-c7ccc8c(c7)n(C)c(=O)n8C7CCC(=O)NC7=O)cc6)CC5)CC4)cn3)c2=O)nn2c(C(=O)N[C@@H]3C[C@@H]3F)cnc12` (stereo partly drawn) [Example K454], the DC50 on TYK2 [1] was over 100 nM; at TYK2 [2], under 1 nM; on TYK2 [3], under 1 nM.
Turning to `CNc1cc(Nc2cccc(-c3ccc(CN4CCN(c5ccc(-c6ccc7c(c6)n(C)c(=O)n7C6CCC(=O)NC6=O)cn5)C(=O)C4)cn3)c2)nn2c(C(=O)N[C@@H]3C[C@@H]3F)cnc12` (stereo partly drawn) [Example K455], the results for the DC50 on TYK2 [1], at TYK2 [2] and on TYK2 [3] were over 100 nM, under 1 nM and under 1 nM, respectively.
Turning to `Cn1c(=O)n(C2CCC(=O)NC2=O)c2ccc(-c3ccc(N4CCN(Cc5ccc(-c6cccc(Oc7ccc8ncc(C(=O)NC9CC9)n8n7)c6)nc5)CC4)cc3)cc21` (stereo not drawn) [Example K456], the DC50 at TYK2 [1], at TYK2 [2] and on TYK2 [3] was over 100 nM in each case.
